Measurements reported in article PMC6691788, “Design and synthesis of phthalazine-based compounds as potent anticancer agents with potential antiangiogenic activity via VEGFR-2 inhibition” (Journal of Enzyme Inhibition and Medicinal Chemistry, 2019).
Entries after “also recorded” stand apart in the source; their conditions may differ.

Key:
A498 = assay: NCI 60 cell panel SRB screen; assay type: cell-based; conditions: Homo sapiens; for activity at 10 µM: A498, single dose 10 μM, read-out: percent cell growth promotion; for GI50 / IC (TGI) / CC50: A498, 5 log dose; for CC50: 48 h, read-out: LC50 (the source's name)
TK-10 = assay: NCI 60 cell panel SRB screen; assay type: cell-based, human; conditions: for activity at 10 µM / GI50 / CC50: Homo sapiens; for activity at 10 µM: TK-10, single dose 10 μM, read-out: percent cell growth promotion; for GI50 / CC50 / TGI: TK-10, 5 log dose; for CC50: 48 h, read-out: LC50 (the source's name)
EKVX = assay: NCI 60 cell panel SRB screen; assay type: cell-based, human; conditions: for GI50 / IC (TGI) / LC50: Homo sapiens, 5 log dose; for LC50: 48 h; for percent cell growth promotion: single dose 10 μM
SF-539 = assay: NCI 60 cell panel SRB screen; assay type: cell-based, human; conditions: for GI50 / IC (TGI) / CC50: Homo sapiens, SF-539, 5 log dose; for CC50: 48 h, read-out: LC50 (the source's name); for percent cell growth promotion: SF-539, single dose 10 μM
SK-MEL-2 = assay: NCI 60 cell panel SRB screen; assay type: cell-based; conditions: for GI50 / IC (TGI) / CC50: Homo sapiens; for IC (TGI): read-out: TGI; for CC50: SK-MEL-2, 5 log dose, 48 h, read-out: LC50 (the source's name); for percent cell growth promotion: SK-MEL-2, single dose 10 μM
full NCI 60 cell panel = assay: NCI 60 cell panel SRB screen, whole panel; assay type: cell-based, human; conditions: for GI50: Homo sapiens, 60 cell, NCI 5-log dose, full 60 cell panel, read-out: GI50 values, range over the tested cell lines
HCT-116 cells [1] = assay: Cell-cycle analysis by flow cytometry; assay type: cell-based; conditions: HCT-116, at GI50 concentration (1.20 µM), 24 h and 48 h
Description: The cells then were collected by trypsinization, washed with phosphate buffered saline (PBS), and fixed in ice-cold absolute alcohol. Thereafter, cells were stained, using Cycletest^TM Plus DNA Reagent Kit (BD Biosciences, San Jose, CA), according to the manufacturer’s instructions. Cell cycle distribution was determined using a FACS Calibur flow cytometer (BD Biosciences, San Jose, CA).

HCT-116 cells [2] = assay: Annexin V-FITC/PI apoptosis detection; assay type: cell-based; conditions: HCT-116, at GI50, 24 h and 48 h
Excerpt: To further investigate the ability of compounds (7b, 13c and 16a) to induce apoptosis, an Annexin V (conjugated to FITC) apoptosis detection kit was employed. This assay detects phosphatidylserine (PS) expressed on the surface of apoptotic cells and fluoresces green after interacting with the labelled Annexin V. During early apoptosis, membrane asymmetry is lost, and PS translocates from the cytoplasmic side of the membrane to the external leaflet. Propidium iodide (PI), the counter stain used in this assay, has the ability to cross only compromised membranes to intercalate into the DNA. Therefore, PI is used to detect the late stages of apoptosis by the presence of red fluorescence.
Apoptosis was determined by staining cells with Annexin V–fluorescein isothiocyanate (FITC) and counterstaining with propidium iodide (PI) using the Annexin V–FITC/PI apoptosis detection kit (BD PharMingen, San Diego, CA, USA) according to the manufacturer's instructions. […] The cells then were collected by trypsinization and 0.5 × 10^6 cells were washed twice with phosphate-buffered saline (PBS) and stained with 5 μl Annexin V–FITC and 5 μl PI in 1× binding buffer (BD PharMingen) for 15 minutes at room temperature in the dark. Analyses were performed using FACS Calibur flow cytometer (BD Biosciences, San Jose, CA).

SMILES	activity at 10 µM (A498) [%]	activity at 10 µM (TK-10) [%]	GI50 (EKVX) [µM]	IC (TGI) (EKVX) [µM]	LC50 (EKVX) [µM]	GI50 (SF-539) [µM]	IC (TGI) (SF-539) [µM]	CC50 (SF-539) [µM]	GI50 (SK-MEL-2) [µM]	IC (TGI) (SK-MEL-2) [µM]	CC50 (SK-MEL-2) [µM]	GI50 (A498) [µM]	IC (TGI) (A498) [µM]	CC50 (A498) [µM]	GI50 (full NCI 60 cell panel) [µM]	percent cell growth promotion (EKVX) [%]	percent cell growth promotion (SF-539) [%]	percent cell growth promotion (SK-MEL-2) [%]	also measured
O=C(Nc1ccc(Nc2nncc3ccccc23)cc1)c1ccc(Cl)cc1 [Compound 5b, 4-Chloro-N-(4-(phthalazin-1-ylamino)phenyl)benzamide]	98.7	116	–	–	–	–	–	–	–	–	–	–	–	–	–	–	–	–	–
Cc1nnc(Nc2ccc(NC(=O)c3ccc(Cl)cc3)cc2)c2ccccc12 [Compound 5d, 4-Chloro-N-(4–(4-methylphthalazin-1-ylamino)phenyl)benzamide]	88.9	109	–	–	–	–	–	–	–	–	–	–	–	–	–	–	–	–	–
O=C(Nc1ccc(Cl)cc1)Nc1ccc(Nc2nncc3ccccc23)cc1 [Compound 6b, 1–(4-Chlorophenyl)-3–(4-(phthalazin-1-ylamino)phenyl)urea]	24.5	32	2.95	25.3	> 100	2.88	11.5	36.6	2.7	7.7	44.8	3.79	18.8	> 100	0.15 to 8.41	–	–	–	GI50 (TK-10): 5.03 µM; CC50 (TK-10): > 100 µM; TGI (TK-10): 24.4 µM
Cc1nnc(Nc2ccc(NC(=O)Nc3ccc(Cl)cc3)cc2)c2ccccc12 [Compound 6e, 1–(4-Chlorophenyl)-3–(4-(4-methylphthalazin-1-ylamino)phenyl)urea]	35.4	51.7	3.47	17.9	87.8	1.61	3.32	6.83	2.22	4.59	9.5	3.21	10.5	38.5	0.15 to 8.41	–	–	–	GI50 (TK-10): 3.19 µM; CC50 (TK-10): 33.7 µM; TGI (TK-10): 9.42 µM
Cc1nnc(Oc2ccc(NC(=O)Nc3ccc(Cl)cc3)cc2)c2ccccc12 [Compound 7e, 1–(4-Chlorophenyl)-3–(4-(4-methylphthalazin-1-yloxy)phenyl)urea]	51.5	84.8	–	–	–	–	–	–	–	–	–	–	–	–	–	–	–	–	–
CCOC(=O)N1CCN(c2nncc3ccccc23)CC1 [Compound 8a, Ethyl 4-(phthalazin-1-yl)piperazine-1-carboxylate]	105	110	–	–	–	–	–	–	–	–	–	–	–	–	–	–	–	–	–
c1ccc(N2CCN(c3nncc4ccccc34)CC2)nc1 [Compound 8d, 1–(4-(Pyridin-2-yl)piperazin-1-yl)phthalazine]	97.8	105	–	–	–	–	–	–	–	–	–	–	–	–	–	–	–	–	–
CCOC(=O)N1CCN(c2nnc(C)c3ccccc23)CC1 [Compound 8f, Ethyl 4–(4-methylphthalazin-1-yl)piperazine-1-carboxylate]	76.5	90.6	–	–	–	–	–	–	–	–	–	–	–	–	–	–	–	–	–
Cc1nnc(N2CCN(c3ccccc3)CC2)c2ccccc12 [Compound 8g, 1-Methyl-4–(4-phenylpiperazin-1-yl)phthalazine]	71.7	97.2	–	–	–	–	–	–	–	–	–	–	–	–	–	–	–	–	–
Cc1nnc(N2CCN(c3ccccc3F)CC2)c2ccccc12 [Compound 8h, 1–(4-(2-Fluorophenyl)piperazin-1-yl)-4-methylphthalazine]	65.3	88.7	–	–	–	–	–	–	–	–	–	–	–	–	–	–	–	–	–
Cc1nnc(N2CCN(c3ccccn3)CC2)c2ccccc12 [Compound 8i, 1-Methyl-4–(4-(pyridin-2-yl)piperazin-1-yl)phthalazine]	–	83.2	–	–	–	–	–	–	–	–	–	–	–	–	–	–	–	–	–
O=C(Nc1ccccc1)Nc1ccc(Oc2nnc(Cl)c3ccccc23)cc1 [Compound 13a, 1–(4-(4-Chlorophthalazin-1-yloxy)phenyl)-3-phenylurea]	49.2	25.3	2.31	12.1	> 25	2.81	6.4	14.6	3.9	13.2	> 25	3.45	13.1	> 25	0.15 to 8.41	29.96	-22.02	9.53	GI50 (TK-10): 6.08 µM; CC50 (TK-10): > 25 µM; TGI (TK-10): 14.9 µM
O=C(Nc1ccc(Cl)cc1)Nc1ccc(Oc2nnc(Cl)c3ccccc23)cc1 [Compound 13b, 1–(4-Chlorophenyl)-3–(4-(4-chlorophthalazin-1-yloxy)phenyl)urea]	103	109	–	–	–	–	–	–	–	–	–	–	–	–	–	62.48	84.86	93.58	–
Clc1ccc(Nc2nnc(CNc3ccccc3)c3ccccc23)cc1 [Compound 16a, N-(4-Chlorophenyl)-4-((phenylamino)methyl)phthalazin-1-amine]	24.7	-0.69	1.61	15	> 25	3.67	8.1	17.8	2.16	5.83	14.5	1.45	6.6	17.6	0.15 to 8.41	16.86	33.99	8.63	effect on cell-cycle progression (HCT-116 cells [1]): induce cell cycle arrest at S phase boundary; also recorded: significant action at both S phase and sub-G1 cell population; induction of apoptosis (Annexin-V positive cells), in words (HCT-116 cells [2]): increased the percentage of Annexin-V positive cells in lower right quadrant indicating early apoptosis; sensitivity in the 5 log dose assay, in words (full NCI 60 cell panel; NCI 5 log dose): insensitive to prostate and MCF-7 breast cancer cell lines
COc1cccc(NCc2nnc(Nc3ccc(Cl)cc3)c3ccccc23)c1 [Compound 16d, N-(4-Chlorophenyl)-4-((3-methoxyphenylamino)methyl)phthalazin-1-amine]	-26.8	-40.9	0.58	6.4	> 25	3.07	6.56	14	0.7	3.98	11	1.27	4.42	11.5	0.15 to 8.41	-0.28	-10.19	-34.44	–
Clc1ccc(Nc2nnc(COc3ccccc3)c3ccccc23)cc1 [Compound 17a, N-(4-Chlorophenyl)-4-(phenoxymethyl)phthalazin-1-amine]	-17.3	-17.5	0.67	7.32	> 25	3.12	7.58	18.4	0.97	5.13	15.1	0.68	3.64	10.6	0.15 to 8.41	6.53	8.42	-26.47	–
